Key:
K12 = assay: inhibition of bacterial growth by peptide-ODN conjugate (viable cell count); type: cell-based, E. coli; conditions: conjugate 4 μM, 40 μM or 400 μM, 37° C., 2 hours
Experimental: The inhibition of bacterial growth by peptide-[…] conjugate was evaluated by examining the effect of conjugate dose on the ability of conjugate to inhibit K12 growth. In this study, a peptide-ODN conjugate having the sequence
was added to the 1/50 diluted O/N K12 cell cultures, and final concentration of 4 μM, 40 μM, or 400 μM, with addition of equal volume water as a negative control, and incubated with shaking at 37° C. Immediately after, diluting the O/N culture 1/50, peptide-ODN conjugate was added to final concentration of 4 μM, 40 μM, or […], with addition of equal volume water as a negative control, and incubated with shaking at 37° C. After 2 hours, growth was measured by viable cell count by diluting the cultures and plating in triplicate on LB plates. […] Reduction of Mouse Bacterial Load in Blood by Peptide-ODN Conjugate.

SM101 = assay: inhibition of bacterial growth by ODN (OD600 or viable cell count); type: cell-based, E. coli; conditions: ODN 40 μM or 400 μM, 30° C., 2, 4 or 6 h
Experimental: Immediately after diluting the O/N cultures 1/50, ODN was added to final concentrations of 4 uM, 40 μM or 400 μM with equal volume water as a negative control, and incubated with shaking at 30° C. After 2, 4 or 6 h, the growth was measured by viable cell count, which was done by diluting the cultures and plating on LB plates with streptomycin.
The inhibition of bacterial growth by ODN was evaluated by examining the effect of ODN dosage on SM101 growth. In this study, an ODN having the sequence CTC ATA CTC T was added to the 1/50 diluted O/N SM101 cell cultures, at final concentration of 40 μM or […] with addition of equal volume water as a negative control, and incubated with shaking at 30° C. After 2, 4 or 6 h, the growth was measured by either the optical density at 600 nm (OD600) or viable cell count, which was done by diluting the cultures and plating them in triplicate on LB plates with streptomycin.

FtsZ RNA = assay: in vitro cleavage of FtsZ RNA by DNA enzyme in a cell-free system; type: biochemical; conditions: 37° C., 100 nM template FtsZ RNA, 100 μM DNA enzyme, 10 mM MgCl2, pH 7.5; products 368 nt and 857 nt
Experimental: Lane 1 is a control reaction incubated for 2 hrs in the absence of DNA enzyme. S: substrate; P1 (857 nt) and P2 (368 nt): DNA enzyme digestion products.
The ability of the pssXGb(FtsZ-DZ) expression vector of the present invention to produce DNA enzyme molecules in bacterial cells was tested by evaluating the cleavage activity of the designed DNA enzyme in a cell-free system. The 1225 nt FtsZ RNA, produced by in vitro transcription, is used as a substrate and the cleavage assay is carried out at 37° C. for various period of time as indicated in a 10 μl reaction containing 10 mM MgCl2, 50 mM Tris-HCl, pH 7.5, 100 nM template FtsZ RNA, 100 μM DNA enzyme, and 10 units RNasin.

E. coli XL10-gold(kan) = assay: growth of XL10-gold(kan) transformed with ODN expression plasmid; type: cell-based; conditions: XL10-gold(kan) transformants; LB with chloramphenicol, 37° C. O/N
Experimental: The transformants were plated on LB media with chloramphenicol and incubated at 37° C.
The antibacterial efficacy of the ODN CYGX080103 was further evaluated in two separate experiments. The first was designed to examine the conditionally lethal effect of the ODN expression plasmid in the host cell DH5αPro, the bacterial strain employed in the library screening. The second experiment was designed to study the effect of the ODN expression plasmid on other bacterial strains. In the first study, the ODN expression plasmid and the plasmid without ODN insert as negative control were transformed into DH5αPro and plated onto LB media with or without 200 ng/ml aTc. […] DH5αPro cells carrying the plasmid without the ODN insert grow on both media (FIG. 10B). In the second study, the ODN expression plasmid and the plasmid without ODN insert were transformed into E. coli XL10-gold(kan). The resulted transformants were plated on LB media with chloramphenicol and incubated at 37° C.
In this study, the ODN expression plasmid As080103, having the sequence CYGX080103 listed above, and plasmid pssxGb without ODN insert as negative control, were transformed into E. coli XL10-goldokan). The resulting cell cultures were plated on LB media with chloramphenicol and incubated at 37° C.

DH5αPro = assay: conditionally lethal effect of ODN expression plasmid in DH5αPro on LB media with or without aTc; type: cell-based; conditions: DH5αPro carrying the plasmid; with or without 200 ng/ml aTc
Experimental: Colonies were grown in duplicate in LB plates with or without aTc. Positive clone (containing the pssXGb vector including the sequence CYGX080103) is marked by an arrow.
The CYGX080103 plasmid and the plasmid without ODN insert as negative control were transformed into DH5αPro and plated onto LB media with or without 200 ng/ml aTc. […] DH5αPro carrying plasmid without the ODN insert grows on both media (FIG. 10B).
Since the ssDNA expression library was constructed based on a tetracycline inducible vector, bacterial cells containing the ssDNA expression library were plated in duplicate in Luria broth (LB) plates in the presence or absence 200 ng/ml aTc. […] Plasmid DNA was extracted from the positive colony from the library screening, and the insert sequences determined by 3′ end single-pass sequencing. The insert generated by this set of experiments was named CYGX080103, with sequence of:
The antibacterial efficacy of the ODN CYGX080103 was further evaluated in two separate experiments. The first was designed to examine the conditionally lethal effect of the ODN expression plasmid in the host cell DH5αPro, the bacterial strain employed in the library screening. The second experiment was designed to study the effect of the ODN expression plasmid on other bacterial strains. […]

Molecule: KFFKFFKFFK-CTC ATA CTC T (KFFKFFKFFK peptide conjugated to PNA) [peptide-ODN conjugate, peptide-PNA conjugate]
- cell growth inhibited (K12): 82-99.8%

Molecule: 5′(CTC ATA CTC T)3′ (DNA CTCATACTCT; chemistry not given here) [CYGXacpP, ODN targeting the bacterial essential fatty acid biosynthesis gene acpP]
- cell growth inhibited (SM101): 86-96%

Molecule: 5′-GTTTCGAAGGCTAGCTACAACGATCATCCAG-3′ (listed as DNA, chemistry not fully specified) [CYGXFtsZDZ, 31 nt 10-23 DNA enzyme targeted against the GU site at position 880 of FtsZ mRNA]
- cleavage of FtsZ RNA (FtsZ RNA): effectively cleave the FtsZ RNA in as short a time as 0.5 hr

B1: 5′-CTTTCAACAGTTTTGATGACCTTTGCTGACCATACAATTGCGATATCGTGGGGAGTGAGAG-3′ (nucleic acid)
DNA: CTTTCAACAGTTTTGATGACCTTTGCTGACCATACAATTGCGATATCGTGGGGAGTGAGAG
modifications: expressed or natural sequence
notes: ODN insert of the positive clone from ssDNA expression library screening
- growth on LB media (E. coli XL10-gold(kan)): no XL10-gold(kan) carrying ODN expression plasmid grew
- growth on LB media (DH5αPro): grow normally on the media without aTc but not on media with aTc
